# Key:
# MT4 [1] = assay: Inhibitory activity of compound was determined against HIV-1 replication in MT-4 cells; […]; type: functional, cell-based; details: Homo sapiens
# MT4 [2] = assay: Inhibitory activity against HIV-1 replication in MT-4 cells; Not cytotoxic; type: functional, cell-based; details: Homo sapiens
# MT4 [3] = assay: Inhibitory activity against HIV-1 replication in MT-4 cells; not cytotoxic; type: functional, cell-based; details: Homo sapiens
# MT4 [4] = assay: Inhibitory activity of compound was determined against HIV-1 replication in MT-4 cells; type: functional, cell-based; details: Homo sapiens
# MT4 [5] = assay: Compound was tested for its […] in MT-4 cells; type: functional; details: Homo sapiens, read-out: CD50 (the source's name)
# MT4 [6] = assay: Inhibitory activity of compound was determined against HIV-1 replication in MT-4 cells; weak activity; type: functional, cell-based; details: Homo sapiens
SMILES,EC50 (MT4 [1]) [µM],IC50 (MT4 [3]) [µM],also measured
Nc1nc(O)c2ncn([C@H]3CO[C@H](CP(=O)(O)O)O3)c2n1,> 332,–,IC50 (MT4 [2]): > 332 µM
Cc1cn([C@H]2CO[C@H](CP(=O)(O)O)O2)c(=O)[nH]c1=O,> 332,> 332,–
Nc1ccn([C@H]2CO[C@H](CP(=O)(O)O)O2)c(=O)n1,> 332,> 332,–
Nc1nc(O)c2ncn([C@H]3CO[C@@H](CP(=O)(O)O)O3)c2n1,> 332,> 332,–
Cc1cn([C@H]2CO[C@@H](CP(=O)(O)O)O2)c(=O)[nH]c1=O,> 332,> 332,–
Nc1ccn([C@H]2CO[C@@H](CP(=O)(O)O)O2)c(=O)n1,312,> 332,–
Cc1cn(C2COC(CO[PH](=O)O)O2)c(=O)[nH]c1=O (stereo not given),–,–,EC50 (MT4 [4]): 51 µM; CC50 (MT4 [5]): 342 µM
CC(=O)Nc1ccn(C2COC(CP(=O)(O)O)O2)c(=O)n1 (stereo not given),–,–,EC50 (MT4 [6]): 312 µM
